Assay results taken from patent US10316017B2, “COT modulators and methods of use thereof” (Gilead Sciences, Inc., priority 2015, dated 2019).

Tests used:
[1] = tested on: TNFα production in LPS-stimulated human monocytes; test: Cot Monocyte TNFα Cell Based Assay; settings: Homo sapiens, Monocyte, LPS-stimulated human monocytes, TNFα TR-FRET; read-out: EC50 TNF
How it was run: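 TR-FRET read-out of total secreted TNFα, normalized as % control (unstimulated = 0%, LPS-stimulated = 100%). Cells (5,000/well) were exposed to compound 1 h at 37 °C, then to 50 pg/ml LPS for a further 4 h.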

[2] = target: T1, human Cot catalytic domain (30-397 amino acids) (Homo sapiens, UniProt P41279); test: High Throughput Cot Biochemical Assay (KinEASE TR-FRET); settings: Cot KinEASE TR-FRET, 400 μM ATP; read-out: IC50 HTRF
T1 construct: Purified recombinant human Cot catalytic domain (30-397 amino acids) was purchased from Cama Biosciences; purchased Cama Biosciences (so in the source)
T1 sequence (P41279 30-397): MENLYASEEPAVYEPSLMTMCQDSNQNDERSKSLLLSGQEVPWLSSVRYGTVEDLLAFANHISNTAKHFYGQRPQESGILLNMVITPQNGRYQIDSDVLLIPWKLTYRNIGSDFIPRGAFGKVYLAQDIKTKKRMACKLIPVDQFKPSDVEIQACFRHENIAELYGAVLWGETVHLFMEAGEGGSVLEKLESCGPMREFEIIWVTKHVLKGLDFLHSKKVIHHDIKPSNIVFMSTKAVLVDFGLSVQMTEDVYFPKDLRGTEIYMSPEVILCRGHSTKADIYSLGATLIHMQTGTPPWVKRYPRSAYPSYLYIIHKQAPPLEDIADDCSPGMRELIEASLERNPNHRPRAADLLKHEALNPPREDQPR
How it was run: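 TR-FRET readout: Eu-labeled phospho-specific antibody binds XL665-tagged STK3 peptide after phosphorylation by Cot (aa 30-397, 5 nM). Conditions: 400 μM ATP, 1 μM peptide, MOPS pH 7.0 buffer with MgOAc, DTT, BSA, NP-40, glycerol; 0.1% DMSO.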

| EC50 [1] [µM] | IC50 [2] [µM] | Compound |
| --- | --- | --- |
| ≥ 1 | 0.102 | CC(C)(C)CNc1c(C#N)cnc2c(-c3cncnc3)cc(N[C@H](c3cn(C4(C)CC4)nn3)c3ccccc3Cl)cc12 [Example 1037, (S)-6-(((2-chlorophenyl)(1-(1-methylcyclopropyl)-1H-1,2,3-triazol-4-yl)methyl)amino)-4-(neopentylamino)-8-(pyrimidin-5-yl)quinoline-3-carbonitrile] |
| 0.566 | 0.01 | Cc1c([C@H](Nc2cc(Cl)c3ncc(C#N)c(NCC(C)(C)C)c3c2)c2cn(C3(C(F)(F)F)CC3)nn2)cccc1-n1cccn1 [Example 1038, (S)-8-chloro-6-(((2-methyl-3-(1H-pyrazol-1-yl)phenyl)(1-(1-(trifluoromethyl)cyclopropyl)-1H-1,2,3-triazo1-4-yl)methyl)amino)-4-(neopentylamino)quinoline-3-carbonitrile] |
| 0.496 | 0.019 | Cc1c([C@H](Nc2cc(Cl)c3ncc(C#N)c(NCC(C)(C)C)c3c2)c2cn(C3(C(F)(F)F)CC3)nn2)cccc1-n1nccn1 [Example 1039, (S)-8-chloro-6-(((2-methyl-3-(2H-1,2,3-triazol-2-yl)phenyl)(1-(1-(trifluoromethyl)cyclopropyl)-1H-1,2,3-triazol-4-yl)methyl)amino)-4-(neopentylamino)quinoline-3-carbonitrile] |
| 0.087 | 0.004 | Cc1c([C@H](Nc2cc(Cl)c3ncc(C#N)c(NCC(C)(C)C)c3c2)c2cn(C3(C(F)(F)F)CC3)nn2)cccc1-n1cncn1 [Example 1040, (S)-8-chloro-6-(((2-methyl-3-(1H-1,2,4-triazol-1-yl)phenyl)(1-(1-(trifluoromethyl)cyclopropyl)-1H-1,2,3-triazol-4-yl)methyl)amino)-4-(neopentylamino)quinoline-3-carbonitrile] |
| 0.086 | 0.004 | Cc1c([C@H](Nc2cc(Cl)c3ncc(C#N)c(NCC(C)(C)C)c3c2)c2cn(C3(C(F)(F)F)CC3)nn2)cccc1-n1ccnc1 [Example 1041, (S)-6-(((3-(1H-imidazol-1-yl)-2-methylphenyl)(1-(1-(trifluoromethyl)cyclopropyl)-1H-1,2,3-triazol-4-yl)methyl)amino)-8-chloro-4-(neopentylamino)quinoline-3-carbonitrile] |
| 0.105 | 0.002 | Cc1c([C@H](Nc2cc(C#N)c3ncc(C#N)c(NCC(C)(C)C)c3c2)c2cn(C3(C(F)(F)F)CC3)nn2)cccc1-n1ccnc1 [Example 1042] |
| 0.11 | 0.003 | Cc1c([C@H](Nc2cc(C#N)c3ncc(C#N)c(NCC(C)(C)C)c3c2)c2cn(C3(C(F)(F)F)CC3)nn2)cccc1-n1cncn1 [Example 1043, (S)-6-(((2-methyl-3-(1H-1,2,4-triazol-1-yl)phenyl)(1-(1-(trifluoromethyl)cyclopropyl)-1H-1,2,3-triazol-4-yl)methyl)amino)-4-(neopentylamino)quinoline-3,8-dicarbonitrile] |
| 0.214 | 0.008 | Cc1c([C@H](Nc2cc(C#N)c3ncc(C#N)c(NCC(C)(C)C)c3c2)c2cn(C3(C(F)(F)F)CC3)nn2)cccc1-n1nccn1 [Example 1044, (S)-6-(((2-methyl-3-(2H-1,2,3-triazol-2-yl)phenyl)(1-(1-(trifluoromethyl)cyclopropyl)-1H-1,2,3-triazol-4-yl)methyl)amino)-4-(neopentylamino)quinoline-3,8-dicarbonitrile] |
| 0.268 | 0.005 | Cc1c([C@H](Nc2cc(C#N)c3ncc(C#N)c(NCC(C)(C)C)c3c2)c2cn(C3(C(F)(F)F)CC3)nn2)cccc1-n1cccn1 [Example 1045, (S)-6-(((2-methyl-3-(1H-pyrazol-1-yl)phenyl)(1-(1-(trifluoromethyl)cyclopropyl)-1H-1,2,3-triazol-4-yl)methyl)amino)-4-(neopentylamino)quinoline-3,8-dicarbonitrile] |
| ≥ 1 | 0.142 | [2H]c1c([C@@]([2H])(Nc2cc(Cl)c3ncc(C#N)c(NCC(C)(C)C)c3c2)c2c(F)cccc2Cl)nnn1C1(C)CC1 [Example 1046, (S)-8-chloro-6-(((2-chloro-6-fluorophenyl)(1-(1-methylcyclopropyl)-1H-1,2,3-triazol-4-yl-5-d)methyl-d)amino)-4-(neopentylamino)quinoline-3-carbonitrile] |
| ≥ 1 | 0.101 | [2H][C@@](Nc1cc(Cl)c2ncc(C#N)c(NCC(C)(C)C)c2c1)(c1cn(C2(C)CC2)nn1)c1c(F)cccc1Cl [Example 1047, (S)-8-chloro-6-(((2-chloro-6-fluorophenyl)(1-(1-methylcyclopropyl)-1H-1,2,3-triazol-4-yl)methyl-d)amino)-4-(neopentylamino)quinoline-3-carbonitrile] |
| 0.637 | 0.033 | [2H]c1c([C@@]([2H])(Nc2cc(C#N)c3ncc(C#N)c(NCC(C)(C)C)c3c2)c2c(F)cccc2Cl)nnn1C1(C)CC1 [Example 1048, (S)-6-(((2-chloro-6-fluorophenyl)(1-(1-methylcyclopropyl)-1H-1,2,3-triazol-4-yl-5-d)methyl-d)amino)-4-(neopentylamino)quinoline-3,8-dicarbonitrile] |
| 0.035 | 0.002 | Cc1c([C@H](Nc2cc(Cl)c3ncc(C#N)c(NCC(C)(C)C)c3c2)c2cn(C3(C(F)F)CC3)nn2)cccc1-n1cncn1 [Example 1049, (S)-8-chloro-6-(((1-(1-(difluoromethyl)cyclopropyl)-1H-1,2,3-triazol-4-yl)(2-methyl-3-(1H-1,2,4-triazol-1-yl)phenyl)methyl)amino)-4-(neopentylamino)quinoline-3-carbonitrile] |
| 0.202 | 0.007 | Cc1c(-c2ncco2)cccc1[C@H](Nc1cc(Cl)c2ncc(C#N)c(NCC(C)(C)C)c2c1)c1cn(C2(C(F)(F)F)CC2)nn1 [Example 1050, (S)-8-chloro-6-(((2-methyl-3-(oxazol-2-yl)phenyl)(1-(1-(trifluoromethyl)cyclopropyl)-1H-1,2,3-triazol-4-yl)methyl)amino)-4-(neopentylamino)quinoline-3-carbonitrile] |
| 0.163 | 0.004 | Cc1c(-c2ncco2)cccc1[C@H](Nc1cc(Cl)c2ncc(C#N)c(NCC(C)(C)C)c2c1)c1cn(C2(C(F)F)CC2)nn1 [Example 1051, (S)-8-chloro-6-(((1-(1-(difluoromethyl)cyclopropyl)-1H-1,2,3-triazol-4-yl)(2-methyl-3-(oxazol-2-yl)phenyl)methyl)amino)-4-(neopentylamino)quinoline-3-carbonitrile] |
| ≥ 1 | 0.189 | CC(C)(C)CNc1c(C#N)cnc2c(Br)cc(N[C@H](c3cn(Cc4c(F)cccc4F)nn3)c3ccccc3Cl)cc12 [Example 1052, (S)-8-bromo-6-(((2-chlorophenyl)(1-(2,6-difluorobenzyl)-1H-1,2,3-triazol-4-yl)methyl)amino)-4-(neopentylamino)quinoline-3-carbonitrile] |
| 0.2 | 0.026 | CC(C)(C)CNc1c(C#N)cnc2c(C#N)cc(N[C@H](c3cn(Cc4c(F)cccc4F)nn3)c3ccccc3Cl)cc12 [Example 1053, (S)-6-(((2-chlorophenyl)(1-(2,6-difluorobenzyl)-1H-1,2,3-triazol-4-yl)methyl)amino)-4-(neopentylamino)quinoline-3,8-dicarbonitrile] |
| 0.081 | 0.001 | Cc1c([C@H](Nc2cc(C#N)c3ncc(C#N)c(NCC(C)(C)C)c3c2)c2cn(C3(C(F)F)CC3)nn2)cccc1-n1cncn1 [Example 1054, (S)-6-(((1-(1-(difluoromethyl)cyclopropyl)-1H-1,2,3-triazol-4-yl)(2-methyl-3-(1H-1,2,4-triazol-1-yl)phenyl)methyl)amino)-4-(neopentylamino)quinoline-3,8-dicarbonitrile] |
| 0.1 | 0.003 | Cc1c(-c2ncco2)cccc1[C@H](Nc1cc(C#N)c2ncc(C#N)c(NCC(C)(C)C)c2c1)c1cn(C2(C(F)(F)F)CC2)nn1 [Example 1055, (S)-6-(((2-methyl-3-(oxazol-2-yl)phenyl)(1-(1-(trifluoromethyl)cyclopropyl)-1H-1,2,3-triazo1-4-yl)methyl)amino)-4-(neopentylamino)quinoline-3,8-dicarbonitrile] |
| 0.063 | 0.002 | Cc1c(-c2ncco2)cccc1[C@H](Nc1cc(C#N)c2ncc(C#N)c(NCC(C)(C)C)c2c1)c1cn(C2(C(F)F)CC2)nn1 [Example 1056, (S)-6-(((1-(1-(difluoromethyl)cyclopropyl)-1H-1,2,3-triazol-4-yl)(2-methyl-3-(oxazol-2-yl)phenyl)methyl)amino)-4-(neopentylamino)quinoline-3,8-dicarbonitrile] |
| 0.073 | 0.004 | Cc1c([C@H](Nc2cc(Cl)c3ncc(C#N)c(NCC(C)(C)C)c3c2)c2cn(C3(C(F)(F)F)CC3)nn2)cccc1-n1cnnn1 [Example 1057, (S)-8-chloro-6-(((2-methyl-3-(1H-tetrazol-1-yl)phenyl)(1-(1-(trifluoromethyl)cyclopropyl)-1H-1,2,3-triazol-4-yl)methyl)amino)-4-(neopentylamino)quinoline-3-carbonitrile] |
| 0.553 | 0.075 | CC(C)(C)CNc1c(C#N)cnc2c(Cl)cc(N[C@@H](c3ccccc3)c3cn(C4(C(F)(F)F)CC4)nn3)cc12 [Example 1059, (S)-8-chloro-4-(neopentylamino)-6-((phenyl(1-(1-(trifluoromethyl)cyclopropyl)-1H-1,2,3-triazol-4-yl)methyl)amino)quinoline-3-carbonitrile] |
